Where two headings read alike, the source gives them in different places.
Key:
[1] = target: T1, Pgp (LCC6MDR cells) (Homo sapiens, UniProt P08183)
Experimental: (§3) Cell Proliferation Assay. 6,000 cells of LCC6 or LCC6MDR and anticancer drugs (paclitaxel, vinblastine, vincristine, doxorubicin and mitoxantrone) were mixed with or without modulators to a final volume of 200 μL in each well of 96-well plates. […] The plates were then incubated for 5 days at 37° C. […] IC50 values were calculated from the dose-response curves of MTS assays (Prism 4.0).

[2] = tested on: LCC6 cells; assay: Tumor cell line cytotoxicity of flavonoid dimers, LCC6; format: cell-based, human; details: IC50 of compound alone, 72 hrs
In short: (§1)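 LCC6, LCC6MDR and L929 cells seeded at 1×10^4 cells/well and exposed to graded doses of flavonoid dimers. Incubation 72 hrs at 37° C., 5% CO2. Read-out: % survivors.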

[3] = tested on: L929 cells; assay: Cytotoxicity of flavonoid dimers, L929 mouse fibroblast; format: cell-based
In short: as §1

[4] = tested on: LCC6MDR cells; assay: Tumor cell line cytotoxicity of flavonoid dimers, LCC6MDR; format: cell-based, human; details: IC50 of compound alone, 72 hrs
In short: as §1

[5] = target: T1, Pgp (LCC6MDR cells); assay: Cell proliferation assay: Pgp-modulating activity, reversal of anticancer drug resistance in LCC6MDR cells; details: for RF (Relative Fold), cpd at 0.5 μM: RF = (IC50 without modulator)/(IC50 with 0.5 μM modulator); for RF (Relative Fold), cpd at 0.5 μM / RF (Relative Fold), cpd at 1 μM: paclitaxel, LCC6MDR; for RF (Relative Fold), cpd at 1 μM: RF = (IC50 without modulator)/(IC50 with 1.0 μM modulator)
Experimental: as §3

[6] = tested on: LCC6, LCC6MDR and L929 cell lines; assay: Cytotoxicity over LCC6, LCC6MDR and L929 cell lines; format: cell-based, human, mouse
Experimental: (b) Tumor Cell Line Cytotoxicity. The tumor cytotoxicity assays of flavonoid dimers were performed against LCC6, LCC6MDR and L929 cell lines. The cells were grown in supplemented DMEM media in an atmosphere of 95% air and 5% CO2 at 37° C. In brief, LCC6, LCC6MDR and L929 cells were seeded into 96-well flat bottom microtiter plate at 1×10^4 cells per well in a final volume of 100 μL media, respectively. A graded dose of flavonoid dimers was added into wells. The plate was incubated at 37° C. for 72 hrs at the atmosphere 5% CO2 in the air. The % of survivors was determined.

[7] = tested on: LdAG83 promastigotes (wild type); assay: In vitro anti-promastigote activity, LdAG83; format: cell-based, Leishmania donovani; details: 3 days at 27° C., MTS; read-out: Anti-promastigotes activity (IC50, μM) LdAG83
In short: (§2)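 L. donovani (LdAG83 wild type, SSG-resistant Ld39) and L. major Lm50122 promastigotes were seeded at 1×10^5 per well with a concentration series of compound.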

[8] = tested on: Ld39 promastigotes (SSG-resistant); assay: In vitro anti-promastigote activity, Ld39; format: cell-based, Leishmania donovani; details: 3 days at 27° C., MTS; read-out: Anti-promastigotes activity (IC50, μM) Ld39
In short: as §2

[9] = tested on: Raw264.7 cells; assay: Cytotoxicity, mouse macrophage Raw264.7; format: cell-based; details: 72 hrs
In short: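 Raw264.7 (1×10^4 cells/well) and primary PEM cells (2×10^4 cells/well) in supplemented DMEM received graded compound doses and were incubated 72 h at 37 °C, 5% CO2. Percent survivors determined; cytotoxicity IC50 used for therapeutic index against antileishmanial IC50.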

[10] = tested on: Lm50122 promastigotes; assay: In vitro anti-promastigote activity, Lm50122; format: cell-based, Leishmania major; details: 3 days at 27° C., MTS; read-out: Anti-promastigotes activity (IC50, μM) Lm50122
Experimental: Cell Lines and Cell Culture. Promastigotes of Leishmania donovani (wild type LdAG83, pentamidine-resistant LdAG83-PentR50, and SSG-resistant Ld39) and Leishmania major [MHOM/IL/67/JERICHO II (Lm50122), from ATCC] were used in this study.
In Vitro Anti-Promastigote Activity. The viability of promastigotes was determined by the Cell Titer 96° Aqueous Assay (Promega) that employs a tetrazolium compound (MTS, 2-(4,5-Dimethylthiazol-2-yl-)-5-[3-(carboxymethoxy)phenyl]-2-(4-sulfophenyl)-2H-tetrazolium) and electron coupling reagent, phenazine methosulfate (PMS).^7 Promastigotes were seeded into 96-well flat bottom microtiter plate at 1×10^5 cells per well in a final volume of 100 μL medium and incubated with a series concentration of synthetic flavonoid dimers or known antileishmanials. The parasites were incubated at 27° C. for 72 hrs. Fresh solution of 2 mg/mL MTS and 0.92 mg/mL PMS were prepared in a ratio of 20:1 (MTS:PMS). After 72 hrs incubation, 10 μL of MTS:PMS mixture was added into each well of microtiter plate. The plate was then incubated at 27° C. for 4 hrs for color development. After 4 hrs incubation, the OD values were determined at 490 nm using automatic microtiter plate reader (Bio-Rad).

T1 sequence (P08183 whole entry): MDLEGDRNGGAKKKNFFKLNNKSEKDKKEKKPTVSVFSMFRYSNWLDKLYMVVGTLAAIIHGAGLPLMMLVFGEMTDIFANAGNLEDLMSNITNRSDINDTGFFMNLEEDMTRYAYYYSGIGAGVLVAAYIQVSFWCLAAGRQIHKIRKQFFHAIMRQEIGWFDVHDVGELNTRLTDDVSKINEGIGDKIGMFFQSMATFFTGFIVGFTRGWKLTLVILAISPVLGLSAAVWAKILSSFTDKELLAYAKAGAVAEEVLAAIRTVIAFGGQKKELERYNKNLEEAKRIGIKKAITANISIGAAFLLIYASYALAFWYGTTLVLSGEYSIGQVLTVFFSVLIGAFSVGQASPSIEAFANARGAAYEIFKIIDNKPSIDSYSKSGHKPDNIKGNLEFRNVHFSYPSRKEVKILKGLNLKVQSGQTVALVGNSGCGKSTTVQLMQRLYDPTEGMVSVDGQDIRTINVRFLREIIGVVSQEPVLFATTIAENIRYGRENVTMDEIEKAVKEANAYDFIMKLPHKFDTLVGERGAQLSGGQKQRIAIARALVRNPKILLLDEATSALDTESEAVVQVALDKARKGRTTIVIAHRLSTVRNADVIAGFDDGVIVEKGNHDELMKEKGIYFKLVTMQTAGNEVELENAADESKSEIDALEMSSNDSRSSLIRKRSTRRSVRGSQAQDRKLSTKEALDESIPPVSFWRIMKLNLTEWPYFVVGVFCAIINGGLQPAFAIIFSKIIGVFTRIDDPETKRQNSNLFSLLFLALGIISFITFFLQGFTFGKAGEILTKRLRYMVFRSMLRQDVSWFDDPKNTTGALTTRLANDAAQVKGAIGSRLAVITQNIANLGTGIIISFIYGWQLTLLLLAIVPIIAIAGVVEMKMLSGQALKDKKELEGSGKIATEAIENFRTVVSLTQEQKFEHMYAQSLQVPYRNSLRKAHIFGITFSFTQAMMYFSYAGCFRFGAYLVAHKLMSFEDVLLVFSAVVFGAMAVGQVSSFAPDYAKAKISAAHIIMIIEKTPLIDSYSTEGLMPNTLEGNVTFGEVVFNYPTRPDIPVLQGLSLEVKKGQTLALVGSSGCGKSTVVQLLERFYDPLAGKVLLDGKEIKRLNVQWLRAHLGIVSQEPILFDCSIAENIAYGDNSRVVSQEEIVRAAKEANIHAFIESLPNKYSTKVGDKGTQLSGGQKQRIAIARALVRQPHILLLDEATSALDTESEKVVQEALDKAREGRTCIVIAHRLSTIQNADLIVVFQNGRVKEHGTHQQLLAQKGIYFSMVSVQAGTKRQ

Row | Molecule | RF (Relative Fold), cpd at 0.5 μM [1] | IC50 [2] [µM] | IC50 [3] [µM] | IC50 [4] [µM] | Therapeutic index ([5]; IC50 of compounds for L929/EC50 of compounds for lowering paclitaxel drug resistance) | RF (Relative Fold), cpd at 0.5 μM [5] | IC50 [6] [µM] | EC50 [1] [nM] | IC50 [7] [µM] | IC50 [8] [µM] | IC50 [9] [µM] | RF (Relative Fold), cpd at 1 μM [1] | IC50 [10] [µM] | RF (Relative Fold), cpd at 1 μM [5] | RF (Relative Fold), cpd at 1 μM ([5]; listed as 17)
1 | 1,13-Bis[4′-((5-hydroxy)-4H-chromen-4-on-2-yl)phenyl]-7-(tert-butyloxycarbonyl)-1,4,10,13-tetraoxa-7-azamidecane [Compound 16f] | (11.3) | > 100 | > 100 | > 100 |  |  |  |  |  |  |  |  |  |  | 
2 | CCN(CCOCCOc1ccc(-c2cc(=O)c3ccccc3o2)cc1)CCOCCOc1ccc(-c2cc(=O)c3ccccc3o2)cc1 [Compound 13, 1,13-Bis[4′-(4H-chromen-4-on-2-yl)phenyl]-N-(ethyl)-1,4,10,13-tetraoxa-7-azamidecane] |  | 10.3 ± 2.2 | 6.9 ± 2 | 17.3 ± 3.8 | 34.5 | (26.9) | 6.9 to 17.3 | 200 | 3.2 ± 0.8 | 5.5 ± 1.1 | 8.3 ± 1 |  |  |  | 
3 | O=c1cc(-c2ccc(OCCOCCN(CCO)CCOCCOc3ccc(-c4cc(=O)c5ccccc5o4)cc3)cc2)oc2ccccc12 [Compound 14, 1,13-Bis[4′-(4H-chromen-4-on-2-yl)phenyl]-N-(2-hydroxyethyl)-1,4,10,13-tetraoxa-7-azamidecane] |  | 10.7 ± 3.3 | 6.9 ± 1.4 | 14.8 ± 5.9 |  | (5.0) | 6.9 to 14.8 |  | 3.2 ± 1.1 | 7.2 ± 2.2 | 6.4 ± 1.5 |  |  |  | 
4 | CCOC(=O)CCN(CCOCCOc1ccc(-c2cc(=O)c3ccccc3o2)cc1)CCOCCOc1ccc(-c2cc(=O)c3ccccc3o2)cc1 [Compound 15, 1,13-Bis[4′-(4H-chromen-4-on-2-yl)phenyl]-N-(3-ethoxy-3-oxopropyl)-1,4,10,13-tetraoxa-7-azamidecane] |  | 13.5 ± 0.5 | 18.1 ± 3.4 | 17.7 ± 3.7 |  | (5.3) | 13.5 to 17.7 |  | 3.8 ± 0.8 | 6.6 ± 0.2 |  |  |  |  | 
5 | CC(C)(C)OC(=O)N(CCOCCOc1ccc(-c2cc(=O)c3c(OCc4ccccc4)cccc3o2)cc1)CCOCCOc1ccc(-c2cc(=O)c3c(OCc4ccccc4)cccc3o2)cc1 [Compound 16e, 1,13-Bis[4′-((5-benzyloxy)-4H-chromen-4-on-2-yl)phenyl]-7-(tert-butyloxycarbonyl)-1,4,10,13-tetraoxa-7-azamidecane] | (1.1) | > 100 |  | > 100 |  |  |  |  |  |  |  |  |  |  | 
6 | CC(C)(C)OC(=O)N(CCOCCOc1ccc(-c2oc3ccccc3c(=O)c2OCc2ccccc2)cc1)CCOCCOc1ccc(-c2oc3ccccc3c(=O)c2OCc2ccccc2)cc1 [Compound 16g, 1,13-Bis[4′-((3-benzyloxy)-4H-chromen-4-on-2-yl)phenyl]-7-(tert-butyloxycarbonyl)-1,4,10,13-tetraoxa-7-azamidecane] |  |  |  |  |  |  |  |  |  |  |  | 1.2 |  |  | 
7 | Cc1ccc2oc(-c3ccc(OCCOCCN(CCOCCOc4ccc(-c5cc(=O)c6cc(C)ccc6o5)cc4)C(=O)OC(C)(C)C)cc3)cc(=O)c2c1 [Compound 17c, 1,13-Bis[4′-((6-methyl)-4H-chromen-4-on-2-yl)phenyl]-N-(tert-butyloxycarbonyl)-1,4,10,13-tetraoxa-7-azamidecane] |  | > 100 | > 100 | > 100 |  | (9.6) | > 100 |  | 21 | 100 | > 100 |  | > 100 | (139.2) | 139.0
8 | Cc1ccc(S(=O)(=O)N(CCOCCOc2ccc(-c3cc(=O)c4ccccc4o3)cc2)CCOCCOc2ccc(-c3cc(=O)c4ccccc4o3)cc2)cc1 [Compound 25a, 1,13-Bis[4′-(4H-chromen-4-on-2-yl)phenyl]-N-(4-methylbenzenesulfonyl)-1,4,10,13-tetraoxa-7-azamidecane] |  | > 100 | > 100 | > 100 |  | (5.8) |  |  | 100 | > 100 | > 100 |  |  |  | 

— patent publication US8980848B2, “Flavonoid dimers and their use” (The Hong Kong Polytechnic University, priority 2010, dated 2015)
